These results are taken from patent US8153818B2, “Triazolyl phenyl benzenesulfonamides” (ChemoCentryx, Inc., priority 2006, dated 2012).

The target in this test is T1, CCR9 (Homo sapiens, UniProt P51686).
T1 construct: chemokine expressing cells (such as THP-1 cells for CCR2 assay or MOLT-4 cells for CCR9 assay); host or cells: MOLT-4
T1 sequence (P51686 1-369): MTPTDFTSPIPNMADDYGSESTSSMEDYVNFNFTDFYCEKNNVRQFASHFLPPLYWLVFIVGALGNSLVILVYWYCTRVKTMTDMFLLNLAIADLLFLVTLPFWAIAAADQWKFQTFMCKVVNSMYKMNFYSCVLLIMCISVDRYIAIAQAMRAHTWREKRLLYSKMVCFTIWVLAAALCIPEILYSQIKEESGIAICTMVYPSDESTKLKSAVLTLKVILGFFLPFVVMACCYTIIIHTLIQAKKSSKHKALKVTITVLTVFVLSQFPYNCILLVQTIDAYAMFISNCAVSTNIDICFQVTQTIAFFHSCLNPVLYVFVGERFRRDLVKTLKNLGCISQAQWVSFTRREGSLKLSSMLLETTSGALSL
Briefly: CCR9 activity in one of the chemotaxis, binding or calcium mobilization assays. It counts as cell-based. As to conditions: assay not specified per compound. The method, then:
Conventional migration assay was used to determine the efficacy of potential receptor antagonists in blocking migration mediated through chemokines (such as CCR2 or CCR9). This assay was routinely performed using the ChemoTX® microchamber system with a 5-μm pore-sized polycarbonate membrane. To begin such an assay, chemokine expressing cells (such as THP-1 cells for CCR2 assay or MOLT-4 cells for CCR9 assay) were harvested by centrifugation of cell suspension at 1000 RPM on a GS-6R Beckman centrifuge. The cell pellet was resuspended in chemotaxis buffer (HBSS with 0.1% BSA) at 10×10^6 cells/mL for CCR2 assay (5×10^6 cells/mL for CCR9 assay). Test compounds at desired concentrations were prepared from 10 mM stock solutions by serial dilutions in chemotaxis buffer. An equal volume of cells and compounds were mixed and incubated at room temperature for 15 minutes. Afterwards, 20 μL of the mixture was transferred onto the porous membrane of a migration microchamber, with 29 μL of chemokine ligand (0.1 nM chemokine MCP-1 protein for CCR2 assay or […] chemokine TECK protein for CCR9 assay) placed at the lower chamber. Following an incubation at 37° C. (90-minute for CCR2; 150-minute for CCR9), during which cells migrated against the chemokine gradient, the assay was terminated by removing the cell drops from atop the filter. To quantify cells migrated across the membrane, 5 μL of 7×CyQUANT® solution was added to each well in the lower chamber, and the fluorescence signal measured on a Spectrafluor Plus fluorescence plate reader (TECAN, Durham, N.C.). The degree of inhibition was determined by comparing migration signals between compound-treated and untreated cells. IC50 calculation was further performed by non-linear squares regression analysis using Graphpad Prism (Graphpad Software, San Diego, Calif.).
Calcium flux assay measures an increase in intracellular calcium following ligand-induced receptor activation. In the screen of chemokine antagonists, it was used as a secondary assay carried out on a FLIPR® machine (Molecular Devices, Mountain View, Calif.). To begin an assay, chemokine expressing cells (such as THP-1 cells for CCR2 assay or MOLT-4 cells for CCR9 assay) were harvested by centrifugation of cell suspension, and resuspended to 1.5×10^6 cells/mL in HBSS (with 1% fetal calf serum). Cells were then labeled with a calcium indicator dye Fluo-4 AM for 45 minutes at 37° C. with gentle shaking. Following incubation, cells were pelletted, washed once with HBSS and resuspended in the same buffer at a density of 1.6×10^6 cells/mL. One hundred microliters of labeled cells were mixed with 10 μL of test compound at the appropriate concentrations on an assay plate. Chemokine protein (MCP-1 at a final concentration of 0.1 nM for CCR2 assay or TECK at a final concentration of 25 nM for CCR9 assay) to activate the receptor. The degree of inhibition was determined by comparing calcium signals between compound-treated and untreated cells. IC50 calculations were further performed by non-linear squares regression analysis using Graphpad Prism (Graphpad Software, San Diego, Calif.). […]
In the tables below, structures and activity are provided for representative compounds described herein. Activity is provided as follows for either or both of the chemotaxis assay and/or calcium mobilization assays, described above.
A general note: A change in cytosolic calcium serves as a functional read-out for many receptors and channels.
Usually IC50 stands for the midpoint of a concentration-inhibition curve. Consider `Cn1c(-c2cc(Cl)c(F)cc2NS(=O)(=O)c2ccc(C(C)(C)C)cc2)nnc1C1CCOC1` (centres unmarked) [Compound 115], for which the IC50 was less than 1000 nM.
`CC(C)(C)c1ccc(S(=O)(=O)Nc2ccc(Cl)cc2-c2nncn2[C@H]2CCN(S(C)(=O)=O)C2)cc1` [Compound 153]: the IC50 is less than 1000 nM.
For `COCCn1cnnc1-c1cc(Cl)c(F)cc1NS(=O)(=O)c1ccc(C(C)(C)C)cc1` [Compound 136, 4-tert-butyl-N-(4-chloro-5-fluoro-2-(4-(2-methoxyethyl)-4H-1,2,4-triazol-3-yl)phenyl)benzenesulfonamide] the value was less than 1000 nM; for `CC(C)c1nnc(-c2cc(Cl)ccc2NS(=O)(=O)c2ccc(C(C)(C)C)cc2)n1C` [Compound 8, 4-tert-butyl-N-(4-chloro-2-(5-isopropyl-4-methyl-4H-1,2,4-triazol-3-yl)phenyl)benzenesulfonamide], less than 1000 nM.
With `CC(C)(C)c1ccc(S(=O)(=O)Nc2ccc(Cl)cc2-c2nncn2[C@H]2CCCNC2)cc1` [Compound 113], the IC50 was less than 1000 nM.
For the molecule `COCc1nnc(-c2cc(Cl)ccc2NS(=O)(=O)c2ccc(C(C)(C)C)cc2)n1C1CCOCC1` [Compound 21, 4-tert-butyl-N-(4-chloro-2-(5-(methoxymethyl)-4-(tetrahydro-2H-pyran-4-yl)-4H-1,2,4-triazol-3-yl)phenyl)benzenesulfonamide], the IC50 was less than 1000 nM.
As for `Cc1nnc(-c2cc(Cl)ccc2NS(=O)(=O)c2ccc(C(C)(C)C)cc2)n1[C@H]1CCNC1` [Compound 127], the IC50 is less than 1000 nM.
On to `Cn1c(-c2cc(Cl)c(F)cc2NS(=O)(=O)c2ccc(C(C)(C)C)cc2)nnc1C(C)(C)O` [Compound 57, 4-tert-butyl-N-(4-chloro-5-fluoro-2-(5-(2-hydroxypropan-2-yl)-4-methyl-4H-1,2,4-triazol-3-yl)phenyl)benzenesulfonamide], for which the IC50 was less than 1000 nM.
For `CCc1nnc(-c2cc(C(N)=O)ccc2NS(=O)(=O)c2ccc(C(C)(C)C)cc2)n1C` [Compound 129, 4-(4-tert-butylphenylsulfonamido)-3-(5-ethyl-4-methyl-4H-1,2,4-triazol-3-yl)benzamide], the IC50 was less than 1000 nM.
For `CC(C)Oc1ccc(S(=O)(=O)Nc2ccc(Cl)cc2-c2nncn2C(C)C)cc1` [Compound 69, N-(4-chloro-2-(4-isopropyl-4H-1,2,4-triazol-3-yl)phenyl)-4-isopropoxybenzenesulfonamide], the IC50 is less than 1000 nM.
`Cc1ocnc1-c1nnc(-c2cc(Cl)ccc2NS(=O)(=O)c2ccc(C(C)(C)C)cc2)n1C` [Compound 117]: the IC50 is less than 1000 nM.
Take `Cn1c(CN2CCOCC2)nnc1-c1cc(Cl)c(F)cc1NS(=O)(=O)c1ccc(C(C)(C)C)cc1` [Compound 66]: the IC50 was less than 1000 nM.
Turning to `Cc1nnc(-c2cc(Cl)ccc2NS(=O)(=O)c2ccc(C(C)(C)C)cc2)n1CCN(C)C` [Compound 125, 4-tert-butyl-N-(4-chloro-2-(4-(2-(dimethylamino)ethyl)-5-methyl-4H-1,2,4-triazol-3-yl)phenyl)benzenesulfonamide], the IC50 is less than 1000 nM.
As for `CC(=O)NCCn1c(C)nnc1-c1cc(Cl)ccc1NS(=O)(=O)c1ccc(C(C)(C)C)cc1` [Compound 27, N-(2-(3-(2-(4-tert-butylphenylsulfonamido)-5-chlorophenyl)-5-methyl-4H-1,2,4-triazol-4-yl)ethyl)acetamide], the IC50 is less than 1000 nM.
For `CC(=O)c1nnc(-c2cc(Cl)c(F)cc2NS(=O)(=O)c2ccc(C(C)(C)C)cc2)n1C` [Compound 58, N-(2-(5-acetyl-4-methyl-4H-1,2,4-triazol-3-yl)-4-chloro-5-fluorophenyl)-4-tert-butylbenzenesulfonamide] the value was less than 1000 nM; for `CC(O)c1nnc(-c2cc(Cl)c(F)cc2NS(=O)(=O)c2ccc(C(C)(C)C)cc2)n1C` (centres unmarked) [Compound 59, 4-tert-butyl-N-(4-chloro-5-fluoro-2-(5-(1-hydroxyethyl)-4-methyl-4H-1,2,4-triazol-3-yl)phenyl)benzenesulfonamide], less than 1000 nM.
For the molecule `CN1CCN(Cc2nnc(-c3cc(Cl)c(F)cc3NS(=O)(=O)c3ccc(C(C)(C)C)cc3)n2C)CC1` [Compound 151], the IC50 is less than 1000 nM.
For `CC(C)(C)c1ccc(S(=O)(=O)Nc2cc(F)c(Cl)cc2-c2nncn2[C@H]2CCOC2)cc1` [Compound 54] the value was less than 1000 nM; for `CCc1nnc(-c2cc(Cl)ccc2NS(=O)(=O)c2ccc(C(C)(C)C)cc2)n1C` [Compound 105, 4-tert-butyl-N-(4-chloro-2-(5-ethyl-4-methyl-4H-1,2,4-triazol-3-yl)phenyl)benzenesulfonamide], less than 1000 nM.
In the case of `Cn1c(-c2cc(Cl)ccc2NS(=O)(=O)c2ccc(C(C)(C)C)cc2)nnc1C1CCOCC1` [Compound 9], the IC50 was less than 1000 nM.
As for `CC(C)(C)c1ccc(S(=O)(=O)Nc2ccc(Cl)cc2-c2nnc3ncccn23)cc1` [Compound 156, N-(2-([1,2,4]triazolo[4,3-a]pyrimidin-3-yl)-4-chlorophenyl)-4-tert-butylbenzenesulfonamide], the IC50 was less than 1000 nM.
Regarding `Cn1c(CS(C)(=O)=O)nnc1-c1cc(Cl)c(F)cc1NS(=O)(=O)c1ccc(C(C)(C)C)cc1` [Compound 67, 4-tert-butyl-N-(4-chloro-5-fluoro-2-(4-methyl-5-(methylsulfonylmethyl)-4H-1,2,4-triazol-3-yl)phenyl)benzenesulfonamide], the IC50 is less than 1000 nM.
As for `Cn1c(-c2cc(Cl)c(F)cc2NS(=O)(=O)c2ccc(C(C)(C)C)cc2)nnc1C1CCOCC1` [Compound 116], the IC50 was less than 1000 nM.
With `Cc1nnc(-c2cc(Cl)c(F)cc2NS(=O)(=O)c2ccc(C(C)(C)C)cc2)n1C1CCOC1` (centres unmarked) [Compound 80], the IC50 was less than 1000 nM.
Take `CC(C)(C)c1ccc(S(=O)(=O)Nc2cc(F)c(Cl)cc2-c2nncn2C2CCOC2)cc1` (centres unmarked) [Compound 120]: the concentration for half-maximal inhibition (IC50) is less than 1000 nM.
As to `Cc1ocnc1-c1nnc(-c2cc(Cl)c(F)cc2NS(=O)(=O)c2ccc(C(C)(C)C)cc2)n1C` [Compound 79], the IC50 is less than 1000 nM.
`CC1(c2ccc(S(=O)(=O)Nc3ccc(Cl)cc3-c3nncn3[C@H]3CCNC3)cc2)CCOCC1` [Compound 142, (S)—N-(4-chloro-2-(4-(pyrrolidin-3-yl)-4H-1,2,4-triazol-3-yl)phenyl)-4-(4-methyltetrahydro-2H-pyran-4-yl)benzenesulfonamide]: the IC50 is less than 1000 nM.
For `CCn1c(C)nnc1-c1cc(Cl)ccc1NS(=O)(=O)c1ccc(OC(C)C)cc1` [Compound 17, N-(4-chloro-2-(4-ethyl-5-methyl-4H-1,2,4-triazol-3-yl)phenyl)-4-isopropoxybenzenesulfonamide] the value was less than 1000 nM; for `Cc1nnc(-c2ccc(Cl)cc2NS(=O)(=O)c2ccc(C(C)(C)C)cc2)n1C(C)C` [Compound 95, 4-tert-butyl-N-(5-chloro-2-(4-isopropyl-5-methyl-4H-1,2,4-triazol-3-yl)phenyl)benzenesulfonamide], less than 1000 nM; for `CC(=O)N1CCC(n2c(C)nnc2-c2cc(Cl)ccc2NS(=O)(=O)c2ccc(C(C)(C)C)cc2)C1` (centres unmarked) [Compound 124], less than 1000 nM.
For the molecule `Cn1c(CNC2CCOCC2)nnc1-c1cc(Cl)c(F)cc1NS(=O)(=O)c1ccc(C(C)(C)C)cc1` [Compound 152], the IC50 was less than 1000 nM.
On to `COCCc1nnc(-c2cc(Cl)c(F)cc2NS(=O)(=O)c2ccc(C(C)(C)C)cc2)n1C` [Compound 62, 4-tert-butyl-N-(4-chloro-5-fluoro-2-(5-(2-methoxyethyl)-4-methyl-4H-1,2,4-triazol-3-yl)phenyl)benzenesulfonamide], for which the IC50 is less than 1000 nM.
